Measured values from EP3193856B1, “FORMULATION” (Pharmaq AS, priority 2014, dated 2016).
≈ marks a conversion by molar mass, not a printed value. Where two headings read alike, the source gives them in different places.

What was measured:
[1] = test system: Atlantic salmon; assay: Safety of formulations based on different solvents after intraperitoneal injection; format: in vivo; settings: i.p. 0.2 ml; 37.8 g, freshwater 17°C; 3 week period
Method: Atlantic salmon (average size: 37.8 g) kept in freshwater (17°C) were divided into 11 groups of 5 or 25 fish per group. Mortality was then logged over a 3 week period. […]

[2] = test system: Atlantic salmon; settings: in vivo, ip, 3 months
Method: To investigate the toxicity of the polar solvent further, formulations comprising different amounts of DMSO were prepared as detailed in Table 4. The formulations were intraperitoneally injected in a single dose into Atlantic salmon (19 - 38 g) kept in freshwater (8 - 17 °C). The eventual toxicity induced by each formulation was assessed by continuous registration of mortality up until 3 months post injection, and is shown in Table 4.
Therefore, it was extremely surprising to find that doses as low as about 1 g/kg cause mortality in Atlantic salmon.

[3] = test system: salmonids; settings: Benville et al 1968; cited from earlier work
[4] = test system: Lepeophtheirus salmonis; assay: Sea lice challenge of treated Atlantic salmon; format: in vivo; settings: for Mean number of lice per fish Treated group: chalimus stage counted 2 weeks post challenge, n=10; for Relative effect of treatment: versus untreated group
Method: Atlantic salmon (total n=180) were kept in full seawater (3.5% salinity, 12°C). Half of the population (n=90) were treated with parasiticide (in this case hexaflumuron) on day 0. Treated and untreated fish (n=10 per group) were randomly collected from each group and challenged with copepodids of Lepeophtheirus salmonis in a common challenge tank during a 12 weeks period. This was done six times after treatments, in weeks 1, 3, 6, 8, 10 and 12 post treatment. The number of lice reaching chalimus stage was registered on each fish 2 weeks post challenge. Concentration of hexaflumuron in a portion of muscle with skin was also measured in each fish at the time of lice count.

[5] = cited from earlier work
[6] = Solubility of hexaflumuron, solvent added gradually until complete dissolution; format: physicochemical; settings: for solubility: thermodynamic from solid
Method: In order to produce a formulation in which hexaflumuron was present in stable solution, the solubility of hexaflumuron in various other solvents was investigated. Solubility was determined by adding each solvent gradually to a specific mass of hexaflumuron until complete dissolution was observed.

[7] = Maximum solubility of hexaflumuron in PEG/DMSO/CA as a function of PEG molecular weight (Figure 6); format: physicochemical; settings: PEG600/DMSO/CA mixture, organic solvent or mixture, thermodynamic from solid; formulation with 85% by weight PEG600 and 15% by weight DMSO
Method: An experiment was performed in order to investigate the solubility of parasiticide (hexaflumuron) in a formulation comprising PEG (85 mass%), DMSO (15 mass%), and CA (0.3 volume %) as a function of PEG molecular weight. Increasing amounts of hexaflumuron were dissolved in different mixtures of PEG/DMSO/CA (85/15/0.3) with PEG molecular weights ranging from 200 to 600.

COCC(C)O (stereo not shown) [1-methoxy-2-propanol]
% Mortality [1]: 100%

C[S+](C)[O-] [DMSO, Dimethyl sulfoxide]
doses at which DMSO was found to be toxic [2]: > 1000 mg/kg
LD50 [3]: 12000 to 17000 mg/kg
dose reported not to give any mortality [3]: 7050 mg/kg

CCOC(C)=O [Ethyl acetate]
% Mortality [1]: 100%

O=C(NC(=O)c1c(F)cccc1F)Nc1cc(Cl)c(OC(F)(F)C(F)F)c(Cl)c1 [Hexaflumuron]
Mean number of lice per fish Treated group ([4]; challenged week 1 post treatment, Atlantic salmon, seawater 12°C): 0
Mean number of lice per fish Treated group ([4]; challenged week 3 post treatment): 0
Mean number of lice per fish Treated group ([4]; challenged week 6 post treatment): 0
Mean number of lice per fish Treated group ([4]; challenged week 8 post treatment): 0.2
Mean number of lice per fish Treated group ([4]; challenged week 10 post treatment): 1.7
Mean number of lice per fish Treated group ([4]; challenged week 12 post treatment): 27.6
Relative effect of treatment ([4]; week 1 post treatment): 100%
Relative effect of treatment ([4]; week 3 post treatment): 100%
Relative effect of treatment ([4]; week 6 post treatment): 100%
Relative effect of treatment ([4]; week 8 post treatment): 98%
Relative effect of treatment ([4]; week 10 post treatment): 69%
Relative effect of treatment ([4]; week 12 post treatment): 47%
Hexaflumuron Solubility ([5]; solvent: Methanol): 11300 µg/mL
Hexaflumuron Solubility ([5]; solvent: Water): 0.027 µg/mL
Hexaflumuron Solubility ([5]; solvent: Water, listed as hexaflumuron): about 2.7 x 10^-5 mg/ml
Hexaflumuron Solubility ([5]; solvent: Xylene): 5200 µg/mL
solubility ([6]; oil or lipid, solvent: Isopropyl myristate): < 1 mg/mL
solubility ([6]; oil or lipid, solvent: Paraffin Light Liquid): < 0.1 mg/mL
solubility ([6]; organic solvent or mixture, solvent: Acetone): > 130 mg/mL
solubility ([6]; organic solvent or mixture, solvent: DMA): > 300 mg/mL
solubility ([6]; organic solvent or mixture, solvent: DMF): > 300 mg/mL
solubility ([6]; organic solvent or mixture, solvent: DMSO): > 300 mg/mL
solubility ([6]; organic solvent or mixture, solvent: Ethyl acetate): > 75 mg/mL
solubility ([6]; organic solvent or mixture, solvent: NMP): > 300 mg/mL
solubility ([6]; organic solvent or mixture, solvent: Propylene glycol (PG)): < 0.5 mg/mL
solubility ([6]; organic solvent or mixture, solvent: Tetraglycol): > 75 mg/mL
solubility ([6]; organic solvent or mixture, solvent: n-heptane): < 0.5 mg/mL
Hexaflumuron Solubility ([6]; solvent: DMSO): >300 mg/mL
solubility [7]: ~130 mg/mL (≈ 282 mM)

CN1CCCC1=O [NMP, n-methyl-2-pyrrolidone]
% Mortality [1]: 100%

CC(O)CO (stereo not shown) [PG, propylene glycol]
% Mortality [1]: 0%

Glycofurol
% Mortality [1]: 100%
